Laboratory results from patent US11319303B2 (WIGEN BIOMEDICINE TECHNOLOGY (SHANGHAI) CO., LTD., priority 2017, dated 2022).

Biological target: LC3B (Homo sapiens, UniProt Q9GZQ8)
Assay: Fluorescence Polarization (FP) Assay: displacement of FITC-labeled peptide from GST-LC3B
Type: binding
Settings: Fluorescence Polarization assay; GST-LC3B 180 nM, FITC-labeled peptide 18 nM, 25° C.; read-out: IC50
Procedure: The compounds of the present invention for regulating the autophagy-related protein LC3B were tested by Fluorescence Polarization (FP) Assay.
Fluorescence Polarization (FP) Assay Test

| SMILES | IC50 [µM] |
| --- | --- |
| CN(C)CCNC=C1C(=O)CC(c2ccccc2)C(F)C1=O (stereo not drawn) [Compound 209, 2-(((2-(dimethylamino)ethyl)amino)methylene)-4-fluoro-5-phenylcyclohexane-1,3-dione] | < 3 |
| O=C(O)CNC(=O)CNC=C1C(=O)CC(c2ccccc2)CC1=O (stereo not drawn) [Compound 210, ((2,6-dioxo-4-phenylcyclo-hexylidene)methyl) glycylglycine] | 15 to 100 |
| CC(C)C(=O)N1CCN(CCNC=C2C(=O)CC(c3ccccc3)CC2=O)CC1 (stereo not drawn) [Compound 211, 2-(((2-(4-isobutyrylpiperazin-1-yl)ethyl)amino)methylene)-5-phenylcyclohexane-1,3-dione] | < 3 |
| CC(C)(C)C(=O)N1CCN(CCNC=C2C(=O)CC(c3ccccc3)CC2=O)CC1 (stereo not drawn) [Compound 212, 5-phenyl-2-(((2-(4-pivaloylpiperazin-1-yl)ethyl)amino)methylene) cyclohexane-1,3-dione] | < 3 |
| CC(C)CC(=O)N1CCN(CCNC=C2C(=O)CC(c3ccccc3)CC2=O)CC1 (stereo not drawn) [Compound 213, 2-(((2-(4-(3-methylbutanoyl)piperazin-1-yl)ethyl)amino)methylene)-5-phenylcyclohexane-1,3-dione] | < 3 |
| CN(C)C(=O)N1CCN(CCNC=C2C(=O)CC(c3ccccc3)CC2=O)CC1 (stereo not drawn) [Compound 214, 4-(2-(((2,6-dioxo-4-phenylcyclo-hexylidene)methyl)amino)ethyl)-N,N-dimethylpiperazine-1-carboxamide] | < 3 |
| CCC(=O)N1CCN(CCNC=C2C(=O)CC(c3ccccc3)CC2=O)CC1 (stereo not drawn) [Compound 215, 5-phenyl-2-(((2-(4-propionylpiperazin-1-yl)ethyl)amino)methylene) cyclohexane-1,3-dione] | < 3 |
| O=C1CC(c2ccccc2)CC(=O)C1=CNCCN1CCN(C(=O)c2ccccc2)CC1 (stereo not drawn) [Compound 216, 2-(((2-(4-benzoylpiperazin-1-yl)ethyl)amino)methylene)-5-phenylcyclohexane-1,3-dione] | < 3 |
| O=C1CC(c2ccccc2)CC(=O)C1=CNCCN1CCN(C(=O)c2ccc([N+](=O)[O-])cc2)CC1 (stereo not drawn) [Compound 217, 2-(((2-(4-(4-nitrobenzoyl)piperazin-1-yl)ethyl)amino)methylene)-5-phenylcyclohexane-1,3-dione] | 3 to 15 |
| CS(=O)(=O)N1CCN(CCNC=C2C(=O)CC(c3ccccc3)CC2=O)CC1 (stereo not drawn) [Compound 218, 2-(((2-(4-(methylsulfonyl)piperazin-1-yl)ethyl)amino)methylene)-5-phenylcyclohexane-1,3-dione] | < 3 |
| O=C1CC(c2ccccc2)CC(=O)C1=CNCCN1CCN(C(=O)c2ccc(Cl)cc2)CC1 (stereo not drawn) [Compound 219, 2-(((2-(4-(4-chlorobenzoyl)piperazin-1-yl)ethyl)amino)methylene)-5-phenylcyclohexane-1,3-dione] | < 3 |
| O=C1CC(c2ccccc2)CC(=O)C1=CNCCN1CCN(C(=O)c2ccc(Br)cc2)CC1 (stereo not drawn) [Compound 220, 2-(((2-(4-(4-bromobenzoyl)piperazin-1-yl)ethyl)amino)methylene)-5-phenylcyclohexane-1,3-dione] | 3 to 15 |
| O=C1CC(c2ccccc2)CC(=O)C1=CNCCN1CCN(C(=O)Cc2ccccc2)CC1 (stereo not drawn) [Compound 221, 5-phenyl-2-(((2-(4-(2-phenylacetyl)piperazin-1-yl)ethyl)amino)methylene) cyclohexane-1,3-dione] | < 3 |
| O=C1CC(c2ccccc2)CC(=O)C1=CNCCN1CCN(C(=O)c2cccnc2)CC1 (stereo not drawn) [Compound 222, 2-(((2-(4-nicotinoylpiperazin-1-yl)ethyl)amino)methylene)-5-phenylcyclohexane-1,3-dione] | < 3 |
| Cc1ccc(NC(=O)N2CCN(CCNC=C3C(=O)CC(c4ccc(C)cc4)CC3=O)CC2)cc1 (stereo not drawn) [Compound 224, 4-(2-(((2,6-dioxo-4-(p-tolyl)cyclohexylidene)methyl)amino)ethyl)-N-(p-tolyl)piperazine-1-carboxamide] | < 3 |
| CC(=O)N1CCN(CCNC=C2C(=O)CC(c3ccc(C)cc3)CC2=O)CC1 (stereo not drawn) [Compound 225, 2-(((2-(4-acetylpiperazin-1-yl)ethyl)amino)methylene)-5-(p-tolyl) cyclohexane-1,3-dione] | < 3 |
| Cc1ccc(C2CC(=O)C(=CNCCN3CCN(C(=O)N4CCOCC4)CC3)C(=O)C2)cc1 (stereo not drawn) [Compound 226, 2-(((2-(4-(morpholine-4-carbonyl)piperazin-1-yl)ethyl)amino)methylene)-5-(p-tolyl) cyclohexane-1,3-dione] | < 3 |

Further lines, results first:

| IC50 [µM] | SMILES |
| --- | --- |
| 100 to 1000 | Cc1ccc(C2CC(=O)C(=CNCCN3CCN(S(=O)(=O)c4ccc(C)cc4)CC3)C(=O)C2)cc1 (stereo not drawn) [Compound 227, 5-(p-tolyl)-2-(((2-(4-tosylpiperazin-1-yl)ethyl)amino)methylene) cyclohexane-1,3-dione] |
| < 3 | CCCNC(=O)N1CCN(CCNC=C2C(=O)CC(c3ccc(C)cc3)CC2=O)CC1 (stereo not drawn) [Compound 228, 4-(2-(((2,6-dioxo-4-(p-tolyl)cyclohexylidene)methyl)amino)ethyl)-N-propylpiperazine-1-carboxamide] |
| < 3 | Cc1ccc(C2CC(=O)C(=CNCCN3CCN(CCO)CC3)C(=O)C2)cc1 (stereo not drawn) [Compound 229, 2-(((2-(4-(2-hydroxyethyl)piperazin-1-yl)ethyl)amino)methylene)-5-(p-tolyl) cyclohexane-1,3-dione] |
| < 3 | Cc1ccc(C2CC(=O)C(=CNCCN3CCN(CCCO)CC3)C(=O)C2)cc1 (stereo not drawn) [Compound 230, 2-(((2-(4-(3-hydroxypropyl)piperazin-1-yl)ethyl)amino)methylene)-5-(p-tolyl) cyclohexane-1,3-dione] |
| < 3 | Cc1ccc(C2CC(=O)C(=CNCCN3CCN(C(=S)Nc4ccccc4)CC3)C(=O)C2)cc1 (stereo not drawn) [Compound 231, 4-(2-(((2,6-dioxo-4-(p-tolyl)cyclohexylidene)methyl)amino)ethyl)-N-phenylpiperazine-1-carbothioamide] |
| < 3 | C=CC(=O)N1CCN(CCNC=C2C(=O)CC(c3ccc(C)cc3)CC2=O)CC1 (stereo not drawn) [Compound 232, 2-(((2-(4-acryloylpiperazin-1-yl)ethyl)amino)methylene)-5-(p-tolyl) cyclohexane-1,3-dione] |
| < 3 | C=C(C)C(=O)N1CCN(CCNC=C2C(=O)CC(c3ccc(C)cc3)CC2=O)CC1 (stereo not drawn) [Compound 233, 2-(((2-(4-methacryloyl-piperazin-1-yl)ethyl)amino)methylene)-5-(p-tolyl) cyclohexane-1,3-dione] |
| 3 to 15 | O=C1CC(c2ccccc2)CC(=O)C1=CNCCN1CCNCC1 (stereo not drawn) [Compound 236, 5-phenyl-2-(((2-(piperazin-1-yl)ethyl)amino)methylene) cyclohexane-1,3-dione] |
| 3 to 15 | Cc1ccc(C2CC(=O)C(=CNCCN3CCNCC3)C(=O)C2)cc1 (stereo not drawn) [Compound 237, 2-(((2-(piperazin-1-yl)ethyl)amino)methylene)-5-(p-tolyl) cyclohexane-1,3-dione] |
| < 3 | CCN1CCN(CCNC=C2C(=O)CC(c3ccc(C)cc3)CC2=O)CC1 (stereo not drawn) [Compound 238, 2-(((2-(4-ethylpiperazin-1-yl)ethyl)amino)methylene)-5-(p-tolyl) cyclohexane-1,3-dione] |
| < 3 | Cc1ccc(C2CC(=O)C(=CNCCN3CCN(C(=O)N(C)C)CC3)C(=O)C2)cc1 (stereo not drawn) [Compound 240, 4-(2-(((2,6-dioxo-4-(p-tolyl)cyclohexylidene)methyl)amino)ethyl)-N,N-dimethyl-piperazine-1-carboxamide] |
| < 3 | COc1ccc(C2CC(=O)C(=CN(C)C)C(=O)C2)cc1 (stereo not drawn) [Compound 241, 2-((dimethylamino)methylene)-5-(4-methoxyphenyl) cyclohexane-1,3-dione] |
| 3 to 15 | CN(C)C=C1C(=O)CC(c2ccc(N(C)C)cc2)CC1=O (stereo not drawn) [Compound 242, 2-((dimethylamino)methylene)-5-(4-(dimethylamino)phenyl) cyclohexane-1,3-dione] |
| < 3 | COc1ccc(C2CC(=O)C(=CNCCN3CCN(C(=O)N4CCOCC4)CC3)C(=O)C2)cc1 (stereo not drawn) [Compound 246, 5-(4-methoxyphenyl)-2-(((2-(4-(morpholine-4-carbonyl)piperazin-1-yl)ethyl)amino)-methylene) cyclohexane-1,3-dione] |
| < 3 | CN(C)C(=O)N1CCN(CCNC=C2C(=O)CC(c3ccc(Cl)cc3)CC2=O)CC1 (stereo not drawn) [Compound 248, 4-(2-(((4-(4-chlorophenyl)-2,6-dioxocyclo-hexylidene)methyl)amino)ethyl)-N,N-dimethylpiperazine-1-carboxamide] |
| < 3 | O=C1CC(c2ccc(Cl)cc2)CC(=O)C1=CNCCN1CCN(C(=O)N2CCOCC2)CC1 (stereo not drawn) [Compound 249, 5-(4-chlorophenyl)-2-(((2-(4-(morpholine-4-carbonyl)piperazin-1-yl)ethyl)amino)methylene) cyclohexane-1,3-dione] |
| < 3 | CN(C)C=C1C(=O)CC(c2ccc3c(c2)CCO3)CC1=O (stereo not drawn) [Compound 251, 5-(2,3-dihydrobenzofuran-5-yl)-2-((dimethylamino)methylene) cyclohexane-1,3-dione] |
| < 3 | CN(C)C=C1C(=O)CC(c2ccc(C(F)(F)F)cc2)CC1=O (stereo not drawn) [Compound 254, 2-((dimethylamino)methylene)-5-(4-(trifluoromethyl)phenyl) cyclohexane-1,3-dione] |
| < 3 | CN(C)C=C1C(=O)CC(c2cccc(C(F)(F)F)c2)CC1=O (stereo not drawn) [Compound 255, 2-((dimethylamino)methylene)-5-(3-(trifluoromethyl)phenyl) cyclohexane-1,3-dione] |
| < 3 | CC(=O)Nc1ccc(C2CC(=O)C(=CN(C)C)C(=O)C2)cc1 (stereo not drawn) [Compound 256, N-(4-(4-((dimethylamino)methylene)-3,5-dioxocyclohexyl)phenyl) acetamide] |
| 15 to 100 | CN(C)C=C1C(=O)CC(c2cccnc2)CC1=O (stereo not drawn) [Compound 257, 2-((dimethylamino)methylene)-5-(pyridin-3-yl)cyclohexane-1,3-dione] |
| < 3 | CN(C)C=C1C(=O)CC(c2ccc3[nH]ncc3c2)CC1=O (stereo not drawn) [Compound 259, 2-((dimethylamino)methylene)-5-(1H-indazol-5-yl)cyclohexane-1,3-dione] |
